According to PubChem BioAssay (NCI):
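All cell lines were grown in 96-well plates and treated with compound for 48 hours. At the GI50, growth is halved. TGI denotes the concentration required for complete inhibition of growth.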

Legend:
Assay in all cases: NCI tumour cell line growth inhibition, 48 h
SF-295 CNS = system: SF-295 CNS
HS 578T breast = system: HS 578T breast
PC-3 prostate = system: PC-3 prostate
NCI-H226 lung = system: NCI-H226 lung
HOP-92 NSCLC = system: HOP-92 NSCLC
U251 CNS = system: U251 CNS
SK-OV-3 ovarian = system: SK-OV-3 ovarian
CAKI-1 renal = system: CAKI-1 renal
786-0 renal = system: 786-0 renal
A498 renal = system: A498 renal

Row | Compound | GI50 (SF-295 CNS) | TGI (SF-295 CNS) | GI50 (HS 578T breast) | TGI (HS 578T breast) | GI50 (PC-3 prostate) | TGI (PC-3 prostate) | GI50 (NCI-H226 lung) | TGI (NCI-H226 lung) | GI50 (HOP-92 NSCLC) | TGI (HOP-92 NSCLC) | GI50 (U251 CNS) | TGI (U251 CNS) | GI50 (SK-OV-3 ovarian) | TGI (SK-OV-3 ovarian) | GI50 (CAKI-1 renal) | TGI (CAKI-1 renal) | GI50 (786-0 renal) | TGI (786-0 renal) | GI50 (A498 renal) | TGI (A498 renal)
1 | Oc1ccccc1/C=N\NC(=S)N/N=C/c1ccccc1O | 0.249 µM | 0.987 µM | 10.7 µM | 69.6 µM | 5.99 µM | > 100 µM | 2.26 µM | > 100 µM | 10.3 µM | 64.5 µM | 1.07 µM | > 100 µM | 4.28 µM | > 100 µM | 0.548 µM | 3.94 µM | 3.49 µM | 20 µM | 3.66 µM | 21.9 µM
2 | Nc1nn(C(=O)Nc2c(F)cccc2F)c2ccccc12 | 54.8 µM | > 100 µM | 73 µM | > 100 µM | > 100 µM | > 100 µM | 98.5 µM | > 100 µM | 17.3 µM | > 100 µM | 96.1 µM | > 100 µM | > 100 µM | > 100 µM | 45.3 µM | > 100 µM | > 100 µM | > 100 µM | 31.4 µM | > 100 µM
3 | COC(=O)c1oc2c(C(=O)/C=C/c3ccc(OC)cc3)c(OCCN3CCOCC3)ccc2c1C | 1.85 µM | 5.2 µM | 1.74 µM | 5.84 µM | 1.84 µM | 6.88 µM | 1.59 µM | 3.51 µM | 1.54 µM | 5.48 µM | 1.4 µM | 2.74 µM | 2.92 µM | 8.61 µM | 1.74 µM | 4.94 µM | 1.77 µM | 4.1 µM | 2.04 µM | 4.69 µM
4 | COc1ccc(OC)c(/C=C/c2ccnc3ccccc23)c1 | – | 4.89 µM | – | 5.72 µM | – | 6.76 µM | – | 4.74 µM | – | 18.1 µM | – | 5.66 µM | – | 5.1 µM | – | 18.1 µM | – | 15.4 µM | – | 3.8 µM
5 | Cn1c(=O)c(Oc2ccc(F)cc2F)cc2cnc(NC3CCOCC3)nc21 | > 25 µM | > 25 µM | > 14.3 µM | > 25 µM | > 25 µM | > 25 µM | > 25 µM | > 25 µM | 0.601 µM | 19.4 µM | > 25 µM | > 25 µM | > 25 µM | > 25 µM | > 25 µM | > 25 µM | > 25 µM | > 25 µM | 5 µM | > 25 µM
6 | CC1(C)CCC(C)(C)c2cc(NC(=O)c3ccc(C(=O)O)cc3)ccc21 | – | 68.2 µM | – | > 83.5 µM | – | > 70.6 µM | – | > 79.5 µM | – | 64.1 µM | – | > 62.5 µM | – | > 100 µM | – | 98.6 µM | – | > 85.4 µM | – | 85.1 µM
7 | CN(C)CCS(=O)(=O)Nc1cc(-c2ccc3ncc(C#N)c(Nc4ccc(F)c(Cl)c4)c3c2)cnc1Cl | 0.366 µM | 2.4 µM | 0.127 µM | 1.03 µM | 0.227 µM | 1.72 µM | 0.281 µM | 2.59 µM | 0.0322 µM | 0.409 µM | 0.15 µM | 0.746 µM | 0.299 µM | 1.79 µM | 0.0913 µM | 0.511 µM | 0.307 µM | 3.61 µM | 0.144 µM | 0.344 µM
8 | CN(C)C=Nc1c(I)cc(I)c(CCC(=O)O)c1I | > 100 µM | > 100 µM | > 100 µM | > 100 µM | 91.5 µM | > 100 µM | > 100 µM | > 100 µM | 45.4 µM | > 100 µM | > 100 µM | > 100 µM | > 100 µM | > 100 µM | > 100 µM | > 100 µM | > 100 µM | > 100 µM | 81.6 µM | > 100 µM
9 | COc1ccc2c(c1)C(c1cc(OC)c3c(c1)OCO3)C1=C(COC1=O)N2 (stereo not given) | 0.0919 µM | > 34 µM | 0.214 µM | > 79.4 µM | 0.356 µM | > 100 µM | 0.389 µM | 4.8 µM | 23.3 µM | > 100 µM | 0.419 µM | > 47.9 µM | 0.305 µM | 7.36 µM | 0.769 µM | > 100 µM | 0.469 µM | > 36 µM | 0.105 µM | 1.48 µM
